In US11850220B2 (Augusta University Research Institute, Inc., priority 2020, dated 2023):

Assays:
[1] = system: carrageenan-induced paw edema; assay: carrageenan-induced paw edema technique (anti-inflammatory); format: in vivo; conditions: for Observed (1/property): 1/(% inhibition of edema thickness at 3 h effect); on Observed (1/property): test concentration or dose not given here; on Potency (% Inhibition relative to indomethacin at 3 h effect): test concentration or dose not given here
Excerpt: Anti-inflammatory properties of the ibuprofen-amino acid conjugate (5a-j) and ibuprofen-amino acid-4-aminophenol conjugates 7a-j were studied by the standard carrageenan-induced paw edema technique (Naumov, R. N. et al., Bioorg. Med. Chem. Lett. 2015, 25, 2314-2320; Tiwari, A. D. et al., Org. Biomol. Chem. 2014, 12, 7238-7249).

[2] = system: acetic acid-induced abdominal writhing; assay: acetic acid-induced abdominal writhing technique (peripheral analgesic); format: in vivo; conditions: for Potency: Relative to indomethacin; for % Inhibition/protection / Writing reflex ± SEM: in vivo; on % Inhibition/protection: test concentration or dose not given here; on Writing reflex ± SEM: test concentration or dose not given here
[3] = system: hot plate; assay: hot plate technique (central analgesic); format: in vivo; conditions: for Potency: Relative to indomethacin at 120 min.
[4] = system: animal gastric mucosa; assay: ulcerogenic liability; format: in vivo; conditions: same dose as anti-inflammatory testing
[5] = % inhibition of edema thickness at 3 h effect, Table 7
[6] = anti-inflammatory property (% inhibition of edema at 3 h), Table 8

## CC(C)Cc1ccc(C(C)C(=O)NCCCC(=O)Nc2ccc(O)cc2)cc1 (centres unmarked) [Compound 7d, N-(4-Hydroxyphenyl)-4-(2-(4-isobutylphenyl)propanamido)butanamide]
[1]; Table 7
  Observed (1/property): 0.01515
[1]; 1 h
  % inhibition of edema: 13%
  Mean edema thickness: 1.07 ± 0.06 mm
[1]; 2 h
  % inhibition of edema: 25%
  Mean edema thickness: 1.14 ± 0.04 mm
[1]; 3 h
  % inhibition of edema: 66%
  Mean edema thickness: 0.44 ± 0.03 mm
[1]; 4 h
  % inhibition of edema: 13%
  Mean edema thickness: 1.09 ± 0.04 mm
[1]; 24 h
  % inhibition of edema: 53%
  Mean edema thickness: 0.09 ± 0.01 mm
[1]; [5]
  Observed property: 66%
[1]; [6]
  Observed property: 66%
[1]
  Potency (% Inhibition relative to indomethacin at 3 h effect): 83%
[2]
  Potency: 77
  % Inhibition/protection: 42.1%
  Writing reflex ± SEM: 56.3 ± 0.7
[3]; After 30 min.
  % protection: (49.2) %
  Latency period ± SEM: 3.61 ± 0.05 s
[3]; After 60 min.
  % protection: (27.8) %
  Latency period ± SEM: 2.85 ± 0.04 s
[3]; After 90 min.
  % protection: (15.0) %
  Latency period ± SEM: 2.53 ± 0.02 s
[3]; After 120 min.
  % protection: (12.3) %
  Latency period ± SEM: 2.46 ± 0.09 s
[3]
  Potency: 22
other
  melting point: 140.6 °C

## COc1ccc2c(c1)c(CC(=O)O)c(C)n2C(=O)c1ccc(Cl)cc1 [Indomethacin, reference compound]
[1]; 1 h
  % inhibition of edema: 44%
  Mean edema thickness: 0.69 ± 0.05 mm
[1]; 2 h
  % inhibition of edema: 45%
  Mean edema thickness: 0.83 ± 0.04 mm
[1]; 3 h
  % inhibition of edema: 80%
  Mean edema thickness: 0.26 ± 0.03 mm
[1]; 4 h
  % inhibition of edema: 66%
  Mean edema thickness: 0.43 ± 0.05 mm
[1]; 24 h
  % inhibition of edema: 53%
  Mean edema thickness: 0.09 ± 0.02 mm
[1]
  Potency (% Inhibition relative to indomethacin at 3 h effect): 100%
[4]
  % Incidence of ulcer divided by 10: 10
  Average of ulcer number: 2
  Average severity of ulcer: 1.67
  Number of animals with ulcer: 6/6
  Ulcer index: 13.67
[2]
  Potency: 100
  % Inhibition/protection: 54.9%
  Writing reflex ± SEM: 43.9 ± 1.9
[3]; After 0 min.
  % protection: (6.4) %
  Latency period ± SEM: 3.15 ± 0.03 s
[3]; After 30 min.
  % protection: (30.6) %
  Latency period ± SEM: 3.16 ± 0.02 s
[3]; After 60 min.
  % protection: (35.4) %
  Latency period ± SEM: 3.02 ± 0.04 s
[3]; After 90 min.
  % protection: (49.5) %
  Latency period ± SEM: 3.29 ± 0.01 s
[3]; After 120 min.
  % protection: (56.6) %
  Latency period ± SEM: 3.43 ± 0.05 s
[3]
  Potency: 100

## CC(C)Cc1ccc(C(C)C(=O)O)cc1 (centres unmarked) [Ibuprofen, reference compound]
[1]; 1 h
  % inhibition of edema: 25%
  Mean edema thickness: 0.92 ± 0.02 mm
[1]; 2 h
  % inhibition of edema: 37%
  Mean edema thickness: 0.95 ± 0.03 mm
[1]; 3 h
  % inhibition of edema: 71%
  Mean edema thickness: 0.38 ± 0.01 mm
[1]; 4 h
  % inhibition of edema: 49%
  Mean edema thickness: 0.64 ± 0.02 mm
[1]; 24 h
  % inhibition of edema: 32%
  Mean edema thickness: 0.13 ± 0.01 mm
[4]
  % Incidence of ulcer divided by 10: 3.33
  Average of ulcer number: 0.33
  Average severity of ulcer: 0.67
  Number of animals with ulcer: 2/6
[2]
  Potency: 93
  % Inhibition/protection: 50.8%
  Writing reflex ± SEM: 47.9 ± 2.1
[3]; After 30 min.
  % protection: (25.2) %
  Latency period ± SEM: 3.03 ± 0.04 s
[3]; After 60 min.
  % protection: (30.5) %
  Latency period ± SEM: 2.91 ± 0.02 s
[3]; After 90 min.
  % protection: (40.5) %
  Latency period ± SEM: 3.09 ± 0.04 s
[3]; After 120 min.
  % protection: (50.2) %
  Latency period ± SEM: 3.29 ± 0.03 s
[3]
  Potency: 89

## CC(C)Cc1ccc(C(C)C(=O)NCCC(=O)Nc2ccc(O)cc2)cc1 (centres unmarked) [Compound 7c, N-(4-Hydroxyphenyl)-3-(2-(4-isobutylphenyl)propanamido)propanamide]
[1]; Table 7
  Observed (1/property): 0.01493
[1]; 1 h
  % inhibition of edema: 35%
  Mean edema thickness: 0.80 ± 0.03 mm
[1]; 2 h
  % inhibition of edema: 58%
  Mean edema thickness: 0.63 ± 0.03 mm
[1]; 3 h
  % inhibition of edema: 67%
  Mean edema thickness: 0.43 ± 0.02 mm
[1]; 4 h
  % inhibition of edema: 70%
  Mean edema thickness: 0.38 ± 0.01 mm
[1]; 24 h
  % inhibition of edema: 0%
  Mean edema thickness: 0.19 ± 0.02 mm
[1]; [5]
  Observed property: 67%
[1]; [6]
  Observed property: 67%
[1]
  Potency (% Inhibition relative to indomethacin at 3 h effect): 84%
[2]
  Potency: 115
  % Inhibition/protection: 63.0%
  Writing reflex ± SEM: 36.0 ± 1.3
[3]; After 30 min.
  % protection: (58.3) %
  Latency period ± SEM: 3.83 ± 0.03 s
[3]; After 60 min.
  % protection: (53.4) %
  Latency period ± SEM: 3.42 ± 0.12 s
[3]; After 90 min.
  % protection: (52.7) %
  Latency period ± SEM: 3.36 ± 0.15 s
[3]; After 120 min.
  % protection: (52.1) %
  Latency period ± SEM: 3.33 ± 0.11 s
[3]
  Potency: 92
other
  melting point: 155.5 °C

## CC(C)Cc1ccc(C(C)C(=O)NCCCC(=O)O)cc1 (centres unmarked) [Compound 5d, 4-(2-(4-Isobutylphenyl)propanamido)butanoic acid]
[1]; Table 7
  Observed (1/property): 0.01667
[1]; 1 h
  % inhibition of edema: 22%
  Mean edema thickness: 0.96 ± 0.06 mm
[1]; 2 h
  % inhibition of edema: 28%
  Mean edema thickness: 1.09 ± 0.07 mm
[1]; 3 h
  % inhibition of edema: 60%
  Mean edema thickness: 0.52 ± 0.04 mm
[1]; 4 h
  % inhibition of edema: 13%
  Mean edema thickness: 1.09 ± 0.05 mm
[1]; 24 h
  % inhibition of edema: 58%
  Mean edema thickness: 0.08 ± 0.02 mm
[1]; [5]
  Observed property: 60%
[1]; [6]
  Observed property: 60%
[1]
  Potency (% Inhibition relative to indomethacin at 3 h effect): 75%
[2]
  Potency: 7
  % Inhibition/protection: 3.8%
  Writing reflex ± SEM: 93.6 ± 2.6
[3]; After 30 min.
  % protection: (34.7) %
  Latency period ± SEM: 3.26 ± 0.12 s
[3]; After 60 min.
  % protection: (19.3) %
  Latency period ± SEM: 2.66 ± 0.04 s
[3]; After 90 min.
  % protection: (13.2) %
  Latency period ± SEM: 2.49 ± 0.03 s
[3]; After 120 min.
  % protection: (8.2) %
  Latency period ± SEM: 2.37 ± 0.01 s
[3]
  Potency: 14
other
  melting point: 78.3 °C

## CC(C)Cc1ccc(C(C)C(=O)N[C@@H](C)C(=O)Nc2ccc(O)cc2)cc1 (stereo partly drawn) [Compound 7b, (2S)-N-(4-Hydroxyphenyl)-2-(2-(4-isobutylphenyl)propanamido)propanamide]
[1]; Table 7
  Observed (1/property): 0.01613
[1]; 1 h
  % inhibition of edema: 21%
  Mean edema thickness: 0.97 ± 0.05 mm
[1]; 2 h
  % inhibition of edema: 25%
  Mean edema thickness: 1.13 ± 0.06 mm
[1]; 3 h
  % inhibition of edema: 62%
  Mean edema thickness: 0.50 ± 0.02 mm
[1]; 4 h
  % inhibition of edema: 44%
  Mean edema thickness: 0.70 ± 0.03 mm
[1]; 24 h
  % inhibition of edema: 5%
  Mean edema thickness: 0.18 ± 0.02 mm
[1]; [5]
  Observed property: 62%
[1]; [6]
  Observed property: 62%
[1]
  Potency (% Inhibition relative to indomethacin at 3 h effect): 78%
[2]
  Potency: 132
  % Inhibition/protection: 72.6%
  Writing reflex ± SEM: 26.7 ± 1.1
[3]; After 30 min.
  % protection: (74.0) %
  Latency period ± SEM: 4.21 ± 0.14 s
[3]; After 60 min.
  % protection: (78.5) %
  Latency period ± SEM: 3.98 ± 0.09 s
[3]; After 90 min.
  % protection: (75.0) %
  Latency period ± SEM: 3.85 ± 0.05 s
[3]; After 120 min.
  % protection: (60.7) %
  Latency period ± SEM: 3.52 ± 0.06 s
[3]
  Potency: 107
other
  melting point: 193.7 °C

## CSCC[C@H](NC(=O)C(C)c1ccc(CC(C)C)cc1)C(=O)Nc1ccc(O)cc1 (stereo partly drawn) [Compound 7i, (2S)-N-(4-Hydroxyphenyl)-2-(2-(4-isobutylphenyl)propanamido)-4-(methylthio)butanamide]
[1]; Table 7
  Observed (1/property): 0.01786
[1]; 1 h
  % inhibition of edema: 34%
  Mean edema thickness: 0.81 ± 0.04 mm
[1]; 2 h
  % inhibition of edema: 48%
  Mean edema thickness: 0.79 ± 0.04 mm
[1]; 3 h
  % inhibition of edema: 56%
  Mean edema thickness: 0.57 ± 0.02 mm
[1]; 4 h
  % inhibition of edema: 49%
  Mean edema thickness: 0.64 ± 0.03 mm
[1]; 24 h
  % inhibition of edema: 5%
  Mean edema thickness: 0.18 ± 0.02 mm
[1]; [5]
  Observed property: 56%
[1]; [6]
  Observed property: 56%
[1]
  Potency (% Inhibition relative to indomethacin at 3 h effect): 70%
[2]
  Potency: 128
  % Inhibition/protection: 70.4%
  Writing reflex ± SEM: 28.8 ± 1.0
[3]; After 30 min.
  % protection: (86.4) %
  Latency period ± SEM: 4.51 ± 0.07 s
[3]; After 60 min.
  % protection: (90.1) %
  Latency period ± SEM: 4.24 ± 0.05 s
[3]; After 90 min.
  % protection: (97.7) %
  Latency period ± SEM: 4.35 ± 0.02 s
[3]; After 120 min.
  % protection: (121.5) %
  Latency period ± SEM: 4.85 ± 0.04 s
[3]
  Potency: 215
other
  melting point: 190.8 °C
